Measurements as given in US9902702B2, “Spirocycloheptanes as inhibitors of rock” (BRISTOL-MYERS SQUIBB COMPANY, priority 2014, dated 2018).

What follows are molecules tested against ROCK2 (Homo sapiens, UniProt O75116) (assay: ROCK assay: phosphorylation of FITC peptide substrate, LABCHIP 3000 mobility shift). Conditions: 5 μM ATP, 1.5 μM peptide substrate; read-out: ROCK2 Activity (ROCK IC50 range).
Assay type: biochemical
Outline: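 Rho kinase variant phosphorylates 1.5 μM FITC-AHA-AKRRRLSSLRA-OH with 5 μM ATP in 20 mM HEPES pH 7.5, 20 mM MgCl2, 0.015% Brij-35, 4 mM DTT, DMSO <2%. EDTA stops the reaction, and phospho and non-phospho peptides are resolved by LabChip 3000 mobility shift. IC50 from dose-response curve fit.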

Chain of ROCK2 (O75116 whole entry, species assumed): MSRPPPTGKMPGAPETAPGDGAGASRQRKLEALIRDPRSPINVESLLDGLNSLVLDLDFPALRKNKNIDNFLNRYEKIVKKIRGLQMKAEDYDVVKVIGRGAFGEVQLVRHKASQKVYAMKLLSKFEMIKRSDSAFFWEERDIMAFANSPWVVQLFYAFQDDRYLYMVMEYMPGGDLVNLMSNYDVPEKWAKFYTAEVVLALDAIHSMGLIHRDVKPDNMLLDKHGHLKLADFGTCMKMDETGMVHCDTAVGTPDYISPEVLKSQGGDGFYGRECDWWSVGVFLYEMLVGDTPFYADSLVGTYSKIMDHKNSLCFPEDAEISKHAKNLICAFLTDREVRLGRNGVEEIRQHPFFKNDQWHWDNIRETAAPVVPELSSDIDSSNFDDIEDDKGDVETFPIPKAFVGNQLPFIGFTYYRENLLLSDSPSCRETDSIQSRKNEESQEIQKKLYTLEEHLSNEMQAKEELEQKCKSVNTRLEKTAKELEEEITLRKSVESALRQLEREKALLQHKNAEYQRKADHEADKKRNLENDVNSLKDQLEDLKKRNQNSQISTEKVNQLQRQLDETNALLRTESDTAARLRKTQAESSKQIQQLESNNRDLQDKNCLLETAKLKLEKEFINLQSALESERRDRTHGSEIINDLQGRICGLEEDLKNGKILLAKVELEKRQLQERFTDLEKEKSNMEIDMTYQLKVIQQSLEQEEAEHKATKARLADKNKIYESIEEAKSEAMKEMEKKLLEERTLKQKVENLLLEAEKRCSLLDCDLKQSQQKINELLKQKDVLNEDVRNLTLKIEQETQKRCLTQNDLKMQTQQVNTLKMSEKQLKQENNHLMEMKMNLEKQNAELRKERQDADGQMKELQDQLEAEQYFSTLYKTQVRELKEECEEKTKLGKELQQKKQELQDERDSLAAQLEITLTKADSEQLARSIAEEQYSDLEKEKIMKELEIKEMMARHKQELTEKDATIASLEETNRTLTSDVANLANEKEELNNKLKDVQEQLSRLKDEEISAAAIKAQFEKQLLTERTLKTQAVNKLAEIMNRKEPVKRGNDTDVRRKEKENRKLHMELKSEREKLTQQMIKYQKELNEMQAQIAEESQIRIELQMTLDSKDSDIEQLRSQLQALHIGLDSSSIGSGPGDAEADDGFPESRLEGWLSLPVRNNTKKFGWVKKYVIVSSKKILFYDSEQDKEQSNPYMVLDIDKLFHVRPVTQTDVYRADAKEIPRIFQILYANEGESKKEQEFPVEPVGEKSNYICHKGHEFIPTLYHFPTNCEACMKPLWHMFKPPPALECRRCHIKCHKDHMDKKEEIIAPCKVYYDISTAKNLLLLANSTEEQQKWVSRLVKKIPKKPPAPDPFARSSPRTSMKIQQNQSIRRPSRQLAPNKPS

SMILES | IC50
O=C(NC1CC2(C1)CC(c1n[nH]c(=O)c3ccccc13)C2)c1cn2c(n1)sc1ccccc12 [Example 94, N-((aR)-6-(4-oxo-3,4-dihydrophthalazin-1-yl)spiro[3.3]heptan-2-yl)benzo[d]imidazo[2,1-b]thiazole-2-carboxamide] | 5.1 to 15 nM
CCc1nn2cc(C(=O)NC3CC4(C3)CC(c3n[nH]c(=O)c5ccccc35)C4)nc2s1 [Example 95, 2-ethyl-N-((aR)-6-(4-oxo-3,4-dihydrophthalazin-1-yl)spiro[3.3]heptan-2-yl)imidazo[2,1-b][1,3,4]thiadiazole-6-carboxamide] | 5.1 to 15 nM
O=C(NC1CC2(C1)CC(c1n[nH]c(=O)c3ccccc13)C2)c1cnn2ncccc12 [Example 96, N-((aR)-6-(4-oxo-3,4-dihydrophthalazin-1-yl)spiro[3.3]heptan-2-yl)pyrazolo[1,5-b]pyridazine-3-carboxamide] | 15.1 to 100 nM
CC(C)(O)COc1ccc2c(C(=O)NC3CC4(C3)CC(c3n[nH]c(=O)c5ccccc35)C4)cnn2c1C1CC1 [Example 97, 7-cyclopropyl-6-(2-hydroxy-2-methylpropoxy)-N-((aR)-6-(4-oxo-3,4-dihydrophthalazin-1-yl)spiro[3.3]heptan-2-yl)pyrazolo[1,5-a]pyridine-3-carboxamide] | 0.2 to 2 nM
O=C(NC1CC2(C1)CC(c1n[nH]c(=O)c3ccccc13)C2)c1cnn2cc(OCC(O)(C(F)(F)F)C(F)(F)F)ccc12 [Example 98, N-((aR)-6-(4-oxo-3,4-dihydrophthalazin-1-yl)spiro[3.3]heptan-2-yl)-6-(3,3,3-trifluoro-2-hydroxy-2-(trifluoromethyl)propoxy)pyrazolo[1,5-a]pyridine-3-carboxamide] | 2.01 to 5 nM
O=C(NC1CC2(C1)CC(c1n[nH]c(=O)c3ccccc13)C2)c1cnn2cc(OCc3ccccc3)ccc12 [Example 99, 6-(benzyloxy)-N-((aR)-6-(4-oxo-3,4-dihydrophthalazin-1-yl)spiro[3.3]heptan-2-yl)pyrazolo[1,5-a]pyridine-3-carboxamide] | 0.2 to 2 nM
O=C(NC1CC2(C1)CC(c1n[nH]c(=O)c3ccccc13)C2)c1ccnn1CC(F)F [Example 100, 1-(2,2-difluoroethyl)-N-((aR)-6-(4-oxo-3,4-dihydrophthalazin-1-yl)spiro[3.3]heptan-2-yl)-1H-pyrazole-5-carboxamide] | 100 to 2100 nM
O=C(NC1CC2(C1)CC(c1n[nH]c(=O)c3ccccc13)C2)c1ccnn1CCC(F)(F)F [Example 101, N-((aR)-6-(4-oxo-3,4-dihydrophthalazin-1-yl)spiro[3.3]heptan-2-yl)-1-(3,3,3-trifluoropropyl)-1H-pyrazole-5-carboxamide] | 15.1 to 100 nM
COc1ccc(Cn2cc(C(=O)NC3CC4(C3)CC(c3n[nH]c(=O)c5ccccc35)C4)cn2)cc1 [Example 102, 1-(4-methoxybenzyl)-N-((aR)-6-(4-oxo-3,4-dihydrophthalazin-1-yl)spiro[3.3]heptan-2-yl)-1H-pyrazole-4-carboxamide] | 5.1 to 15 nM
O=C(NC1CC2(C1)CC(c1n[nH]c(=O)c3ccccc13)C2)c1ccnn1CC1CC1 [Example 103, 1-(cyclopropylmethyl)-N-((aR)-6-(4-oxo-3,4-dihydrophthalazin-1-yl)spiro[3.3]heptan-2-yl)-1H-pyrazole-5-carboxamide] | 15.1 to 100 nM
O=C(NC1CC2(C1)CC(c1n[nH]c(=O)c3ccccc13)C2)c1ccnn1C1CCOCC1 [Example 104, N-((aR)-6-(4-oxo-3,4-dihydrophthalazin-1-yl)spiro[3.3]heptan-2-yl)-1-(tetrahydro-2H-pyran-4-yl)-1H-pyrazole-5-carboxamide] | 100 to 2100 nM
O=C(NC1CC2(C1)CC(c1n[nH]c(=O)c3ccccc13)C2)c1cnn2cc(OC3CCOC3)ccc12 [Example 105, N-((aR)-6-(4-oxo-3,4-dihydrophthalazin-1-yl)spiro[3.3]heptan-2-yl)-6-((tetrahydrofuran-3-yl)oxy)pyrazolo[1,5-a]pyridine-3-carboxamide] | 0.2 to 2 nM
CC(C)(C)OC(=O)NCCn1cc(C(=O)NC2CC3(C2)CC(c2n[nH]c(=O)c4ccccc24)C3)cn1 [Example 106, tert-butyl (2-(4-(((aR)-6-(4-oxo-3,4-dihydrophthalazin-1-yl)spiro[3.3]heptan-2-yl)carbamoyl)-1H-pyrazol-1-yl)ethyl)carbamate] | 100 to 2100 nM
O=C(NC1CC2(C1)CC(c1n[nH]c(=O)c3ccccc13)C2)c1cnn2cc(OCC(O)C(F)(F)F)ccc12 [Example 107, N-((aR)-6-(4-oxo-3,4-dihydrophthalazin-1-yl)spiro[3.3]heptan-2-yl)-6-(3,3,3-trifluoro-2-hydroxypropoxy)pyrazolo[1,5-a]pyridine-3-carboxamide] | 0.2 to 2 nM
COc1cccc(-n2cc(C(=O)NC3CC4(C3)CC(c3n[nH]c(=O)c5ccccc35)C4)cn2)c1 [Example 108, 1-(3-methoxyphenyl)-N-((aR)-6-(4-oxo-3,4-dihydrophthalazin-1-yl)spiro[3.3]heptan-2-yl)-1H-pyrazole-4-carboxamide] | 2.01 to 5 nM
O=C(NC1CC2(C1)CC(c1n[nH]c(=O)c3ccccc13)C2)c1cnn(Cc2ccccc2)c1 [Example 109, 1-benzyl-N-((aR)-6-(4-oxo-3,4-dihydrophthalazin-1-yl)spiro[3.3]heptan-2-yl)-1H-pyrazole-4-carboxamide] | 2.01 to 5 nM
CC(C)(O)COc1ccc2c(C(=O)NC3CC4(C3)CC(c3n[nH]c(=O)c5ccccc35)C4)cnn2c1C(N)=O [Example 110, 6-(2-hydroxy-2-methylpropoxy)-N3-((aR)-6-(4-oxo-3,4-dihydrophthalazin-1-yl)spiro[3.3]heptan-2-yl)pyrazolo[1,5-a]pyridine-3,7-dicarboxamide] | 15.1 to 100 nM
N#Cc1c(O)ccc2c(C(=O)NC3CC4(C3)CC(c3n[nH]c(=O)c5ccccc35)C4)cnn12 [Example 111, 7-cyano-6-hydroxy-N-((aR)-6-(4-oxo-3,4-dihydrophthalazin-1-yl)spiro[3.3]heptan-2-yl)pyrazolo[1,5-a]pyridine-3-carboxamide] | 15.1 to 100 nM
Cc1c(OCC(C)(C)O)ccc2c(C(=O)NC3CC4(C3)CC(c3n[nH]c(=O)c5ccccc35)C4)cnn12 [Example 112, 6-(2-hydroxy-2-methylpropoxy)-7-methyl-N-((aR)-6-(4-oxo-3,4-dihydrophthalazin-1-yl)spiro[3.3]heptan-2-yl)pyrazolo[1,5-a]pyridine-3-carboxamide] | 2.01 to 5 nM
COCc1c(OCC(C)(C)O)ccc2c(C(=O)NC3CC4(C3)CC(c3n[nH]c(=O)c5ccccc35)C4)cnn12 [Example 113, 6-(2-hydroxy-2-methylpropoxy)-7-(methoxymethyl)-N-((aR)-6-(4-oxo-3,4-dihydrophthalazin-1-yl)spiro[3.3]heptan-2-yl)pyrazolo[1,5-a]pyridine-3-carboxamide] | 2.01 to 5 nM
Cc1c(C(=O)NC2CC3(C2)CC(c2n[nH]c(=O)c4ccccc24)C3)nnn1-c1ccccc1 [Example 114, 5-methyl-N-((aR)-6-(4-oxo-3,4-dihydrophthalazin-1-yl)spiro[3.3]heptan-2-yl)-1-phenyl-1H-1,2,3-triazole-4-carboxamide] | 2.01 to 5 nM
COc1ccc(-n2nnc(C(=O)NC3CC4(C3)CC(c3n[nH]c(=O)c5ccccc35)C4)c2C)cc1 [Example 115, 1-(4-methoxyphenyl)-5-methyl-N-((aR)-6-(4-oxo-3,4-dihydrophthalazin-1-yl)spiro[3.3]heptan-2-yl)-1H-1,2,3-triazole-4-carboxamide] | 2.01 to 5 nM
COc1cccc(-n2cc(C(=O)NC3CC4(C3)CC(c3n[nH]c(=O)c5ccccc35)C4)nn2)c1 [Example 116, 1-(3-methoxyphenyl)-N-((aR)-6-(4-oxo-3,4-dihydrophthalazin-1-yl)spiro[3.3]heptan-2-yl)-1H-1,2,3-triazole-4-carboxamide] | 2.01 to 5 nM
COc1ccccc1-n1nnc(C(=O)NC2CC3(C2)CC(c2n[nH]c(=O)c4ccccc24)C3)c1C [Example 117, 1-(2-methoxyphenyl)-5-methyl-N-((aR)-6-(4-oxo-3,4-dihydrophthalazin-1-yl)spiro[3.3]heptan-2-yl)-1H-1,2,3-triazole-4-carboxamide] | 15.1 to 100 nM
O=C(NC1CC2(C1)CC(c1n[nH]c(=O)c3ccccc13)C2)c1noc(-c2ccc(F)cc2)n1 [Example 118, 5-(4-fluorophenyl)-N-((aR)-6-(4-oxo-3,4-dihydrophthalazin-1-yl)spiro[3.3]heptan-2-yl)-1,2,4-oxadiazole-3-carboxamide] | 15.1 to 100 nM
O=C(N[C@H]1CC2(C1)C[C@H](c1n[nH]c(=O)c3ccccc31)C2)c1cnn2cc(OC[C@@H](O)C(F)(F)F)ccc12 (stereo partly drawn) [Example 119, N-((aR)-6-(4-oxo-3,4-dihydrophthalazin-1-yl)spiro[3.3]heptan-2-yl)-6-(3,3,3-trifluoro-2-hydroxypropoxy)pyrazolo[1,5-a]pyridine-3-carboxamide] | 0.2 to 2 nM
O=C(N[C@H]1CC2(C1)C[C@H](c1n[nH]c(=O)c3ccccc31)C2)c1cnn2cc(OC[C@@H](O)C(F)(F)F)ccc12 (stereo partly drawn) [Example 120, N-((aR)-6-(4-oxo-3,4-dihydrophthalazin-1-yl)spiro[3.3]heptan-2-yl)-6-(3,3,3-trifluoro-2-hydroxypropoxy)pyrazolo[1,5-a]pyridine-3-carboxamide] | 0.2 to 2 nM
O=C(N[C@H]1CC2(C1)C[C@H](c1n[nH]c(=O)c3ccccc31)C2)c1cnn2cc(O[C@@H]3CCOC3)ccc12 (stereo partly drawn) [Example 121, N-((aR)-6-(4-oxo-3,4-dihydrophthalazin-1-yl)spiro[3.3]heptan-2-yl)-6-((tetrahydrofuran-3-yl)oxy)pyrazolo[1,5-a]pyridine-3-carboxamide] | 0.2 to 2 nM
O=C(N[C@H]1CC2(C1)C[C@H](c1n[nH]c(=O)c3ccccc31)C2)c1cnn2cc(O[C@@H]3CCOC3)ccc12 (stereo partly drawn) [Example 122, N-((aR)-6-(4-oxo-3,4-dihydrophthalazin-1-yl)spiro[3.3]heptan-2-yl)-6-((tetrahydrofuran-3-yl)oxy)pyrazolo[1,5-a]pyridine-3-carboxamide] | 0.2 to 2 nM
